“And” between values parts separate entries of the source, which are not always exact repeats. Identical values can stand only once. “Also recorded” adds a separate entry of the source.
Assays:
[1] = test system: patients with resistant hypertension; experiment: Same clinical study: urinary albumin to creatinine ratio; format: in vivo, human
Method: (§1) Co-primary efficacy endpoints were the changes from baseline through weeks 8 and 10 (i.e., doses of 150 and 300 mg) in trough sitting SBP. Blood pressure was measured at every study visit (baseline and weeks 2, 4, 6, 8 and 10) using standard sphygmomanometry. Secondary variables included 24-hour SBP as measured by ambulatory blood pressure monitoring (ABPM), percentage of patients who achieved SBP goal, trough sitting DBP, and urinary albumin to creatinine ratio. Ambulatory blood pressure monitoring was recorded once before randomization and repeated during the 24 hours immediately preceding the week 10 study visit. Urine samples for determination of albumin to creatinine ratio were collected at screening, baseline and week 10.

[2] = test system: patients with moderate hypertension; conditions: 10 to 100 mg/day, no other antihypertensive drugs; cited from earlier work
[3] = test system: patients with resistant hypertension; experiment: Randomized, double-blind, placebo-controlled dose-titration study: sitting blood pressure by standard sphygmomanometry; format: in vivo, human; conditions: for patients achieving SBP goal, % / patients achieving SBP goal, responders n: n = 76; for placebo-corrected change from baseline in trough sitting SBP: post-hoc
Method: In this randomized, double-blind, placebo-controlled, dose-titration study, 115 patients with resistant hypertension as defined by JNC 7 guidelines were randomized 2:1 to receive escalating doses of darusentan (10, 50, 100, 150 and 300 mg) or placebo once daily for 10 weeks. Darusentan dose was increased every 2 weeks.
Patients (35 to 85 years of age) with resistant hypertension as defined by the JNC 7 guidelines and who were treated with and adhered to full doses of JNC 7 recommended antihypertensives, including a diuretic and two or more antihypertensive medications from different drug classes, defined as (a) ACE inhibitors and angiotensin II receptor blockers, (b) beta-adrenergic receptor blockers, and (c) calcium channel blockers, were eligible to participate in the study. Patients also were required to have an estimated glomerular filtration rate (GFR)≧30 mL/min/1.73 m^2 during the screening period. Women of childbearing potential were required to have a negative serum pregnancy test at the screening visit and a negative urine pregnancy test at baseline, and they must have agreed to use a reliable double-barrier method of contraception throughout the study and for at least 4 weeks after the last study visit. Patients with an average sitting SBP≧180 mmHg, DBP≧110 mmHg, hemoglobin A1c>10%, hemoglobin concentration<10 g/dL, hematocrit<30%, serum thyroid stimulating hormone concentration>1.5× the upper limit of normal (ULN), or serum alanine aminotransferase (ALT) or aspartate aminotransferase (AST)>2×ULN during the screening period were excluded from the study. […] All patients provided written informed consent.
In this randomized, double-blind, placebo-controlled, dose-titration study, patients were randomized 2:1 to receive escalating doses of darusentan or placebo once daily in the morning for 10 weeks after completing a 2-week placebo run-in period (FIG. 1). Darusentan was initiated at a dose of 10 mg/day and escalated every 2 weeks at doses of 50, 100 and 150 mg/day until reaching a maximum of 300 mg/day. […] Patients were withdrawn from the study if a subsequent dose reduction was required. After completion of the 10-week treatment period, patients were withdrawn from study medication over a maximum of 2 weeks. This study was approved by an Institutional Review Board/Independent Ethics Committee and conducted in accordance with the principles of Good Clinical Practices and the revised Declaration of Helsinki.
as §1
A nonlinear mixed effect model was used for the analysis of change in blood pressure, with comorbidity status as a covariate. This model used all observed blood pressure measurements with no imputation for missing values. Linear contrast statements were used to test the slope through a given time point to test the effect of the dose administered on that week. Estimates of treatment effect were obtained via least square means. Response rates were compared with logistic regression models at each blood pressure measurement with comorbidity status as a covariate; missing values were imputed with last observation carried forward for these models. Safety summaries include all patients who received ≧1 dose of blinded study medication. […]

[4] = test system: patients with resistant hypertension; experiment: Same clinical study: safety and tolerability assessments; format: in vivo, human
Method: Physical examinations, vital sign measurements, clinical chemistry and hematologic laboratory tests, and electrocardiography were performed at the screening visit and periodically throughout the study. Blood samples were obtained at baseline and at weeks 4 and 10 during study drug treatment to monitor liver function. Additional blood samples were drawn from male patients at baseline and week 10 to assess follicle stimulating hormone, inhibin B, luteinizing hormone and testosterone levels. Male fertility was assessed by analysis of semen samples obtained within 2 weeks before baseline and within 2 weeks before week 10. Adverse events were monitored throughout the study.
(§2) A nonlinear mixed effect model was used for the analysis of change in blood pressure, with comorbidity status as a covariate. This model used all observed blood pressure measurements with no imputation for missing values. Linear contrast statements were used to test the slope through a given time point to test the effect of the dose administered on that week. Estimates of treatment effect were obtained via least square means. Response rates were compared with logistic regression models at each blood pressure measurement with comorbidity status as a covariate; missing values were imputed with last observation carried forward for these models. Safety summaries include all patients who received ≧1 dose of blinded study medication.

[5] = test system: patients with resistant hypertension; experiment: Same clinical study: 24-hour ambulatory blood pressure monitoring (ABPM); format: in vivo, human
Method: as §1, §2
In this randomized, double-blind, multi-center study, subjects underwent a 2-week placebo run-in, followed by 2:1 randomization to darusentan or placebo once daily for 10 weeks. Subjects were initiated on 10 mg of study drug and underwent dose-escalation every 2 weeks through doses of 50, 100 and 150 mg until a maximum dose of 300 mg was achieved. Change from baseline to week 10 in 24-hour ambulatory blood pressure (ABP) was a secondary efficacy endpoint. All available ABP data were included in the analyses (observed population).

SMILES: COc1cc(OC)nc(O[C@H](C(=O)O)C(OC)(c2ccccc2)c2ccccc2)n1 [Darusentan, (+)-(S)-2-[(4,6-dimethoxy-2-pyrimidinyl)oxy]-3-methoxy-3,3-diphenylpropionic acid]
- geometric mean albumin to creatinine ratio at week 10 ([1]; all observed patients, n 65, baseline 12.6): 9.4 mg/g
- decrease from baseline in geometric mean urinary albumin to creatinine ratio ([1]; all observed patients, placebo increased 6.2%): 25.3%
- geometric mean albumin to creatinine ratio at week 10 ([1]; baseline ratio >30 mg/g, n 12, baseline 145.4): 73.6 mg/g
- geometric mean albumin to creatinine ratio at week 10 ([1]; baseline ratio ≦30 mg/g, n 53, baseline 7.2): 5.9 mg/g
- albumin to creatinine ratio, % change from baseline, mean (SE) ([1]; week 10, all observed patients, n 65): −25.3 (8.9) %
- albumin to creatinine ratio, % change from baseline, mean (SE) ([1]; week 10, baseline ratio >30 mg/g, n 12): −49.4 (23.6) %
- albumin to creatinine ratio, % change from baseline, mean (SE) ([1]; week 10, baseline ratio ≦30 mg/g, n 53): −18.4 (8.3) %
- effect on SBP and DBP by comparison with placebo [2]: significantly reduce SBP and DBP
- sitting and standing blood pressure during withdrawal ([3]; 2-week withdrawal period after week 10, no significant difference vs placebo): increased
- dose dependence of improvements in trough sitting SBP and DBP ([3]; 10 to 300 mg once daily, escalated every 2 weeks): dose dependent
- reduction in peak sitting DBP ([3]; by week 10): 8.2 mmHg
- reduction in peak sitting SBP ([3]; by week 10, placebo 9.9): 17.1 mmHg
- average trough sitting DBP at end of treatment ([3]; study end (week 10), baseline 80.6): 73.9 mmHg
- average trough sitting SBP at end of treatment ([3]; study end (week 10), baseline 146.3): 132.6 mmHg
- patients achieving SBP goal, % ([3]; week 2 (10 mg)): 30.3%
- patients achieving SBP goal, responders n ([3]; week 2 (10 mg)): 23
- placebo-adjusted mean trough sitting DBP, change from baseline ([3]; week 4 (50 mg dose)): −4.9 mmHg
- patients achieving SBP goal, % ([3]; week 4 (50 mg)): 47.4%
- patients achieving SBP goal, responders n ([3]; week 4 (50 mg)): 36
- patients achieving SBP goal, % ([3]; week 6 (100 mg)): 44.7%
- patients achieving SBP goal, responders n ([3]; week 6 (100 mg)): 34
- change from baseline in mean trough sitting SBP, difference between groups ([3]; week 8 (150 mg dose), vs placebo): not statistically significant
- patients achieving SBP goal, % ([3]; week 8 (150 mg)): 42.1%
- patients achieving SBP goal, responders n ([3]; week 8 (150 mg)): 32
- placebo-adjusted mean trough sitting DBP, change from baseline ([3]; week 10 (300 mg dose), add-on therapy): −5.8 mmHg and −5.8±2.3 mmHg
- placebo-adjusted mean trough sitting SBP, change from baseline ([3]; week 10 (300 mg dose), oral once daily, add-on to >=3 full-dose antihypertensives incl. diuretic): −11.6 mmHg and −11.6±3.3 mmHg
- patients achieving SBP goal, % ([3]; week 10 (300 mg), JNC 7 goal): 49% and 48.7%
- patients achieving SBP goal, responders n ([3]; week 10 (300 mg)): 37
- placebo-corrected change from baseline in trough sitting SBP ([3]; week 10 (300 mg), subjects on >=4 antihypertensive drugs): −12.71 mmHg
- placebo-corrected change from baseline in trough sitting SBP ([3]; week 10 (300 mg), subjects on exactly 3 antihypertensive drugs): −9.39 mmHg
- subjects with decrease in SBP of at least 20 mmHg ([3]; week 10, post-hoc, placebo 26%): about 46%
- subjects with change from baseline of at least 10 mmHg for SBP ([3]; week 10, post-hoc, placebo 46%): approximately 64%
- subjects achieving SBP goal or a decrease in SBP of at least 10 mmHg ([3]; week 10, post-hoc, placebo 49%): 71%
- subjects achieving SBP goal or a decrease in SBP of at least 10 mmHg ([3]; week 10, subjects on >=4 antihypertensive drugs, placebo 38%): 66%
- subjects achieving SBP goal or a decrease in SBP of at least 10 mmHg ([3]; week 10, subjects on exactly 3 antihypertensive drugs, placebo 57%): 76%
- overall tolerability ([4]; 10 to 300 mg once daily for 10 weeks, add-on therapy): generally safe and well tolerated
- decreases in hematocrit reported as adverse events ([4]; all events mild): 2 patients
- decreases in hemoglobin reported as adverse events ([4]; all events mild): 2 patients
- mean concentrations of ALT, AST, and γ-glutamyltransferase ([4]; both groups): decreased slightly from baseline
- number of serious adverse events reported ([4]; darusentan group, n = 76): Five
- patients reporting serious adverse events ([4]; darusentan group, n = 76): 4 patients
- patients who discontinued the study because of an adverse event ([4]; darusentan group, n = 76): 4 patients
- cases of severe edema reported ([4]; human, in vivo): one
- deaths during the course of the study ([4]; human, in vivo): No patients died
- effects on heart rate or liver enzyme levels ([4]; human, in vivo): no clinically relevant effects
- intensity of peripheral edema ([4]; human, in vivo): largely mild to moderate
- patients able to successfully escalate study medication dose to 300 mg/day ([4]; human, in vivo): 78%
- patients with elevations in ALT or AST >2×ULN ([4]; human, in vivo): no patients; also recorded: no drug-related serious adverse events or elevations in serum aminotransferase concentrations>2×ULN
- relation of serious adverse events to study medication ([4]; human, in vivo): None of these events were considered to be related to study medication; also recorded: no drug-related serious adverse events
- Treatment-emergent adverse event: Arthralgia, patients % ([4]; n = 76): 3%
- Treatment-emergent adverse event: Arthralgia, patients n ([4]; n = 76): 2
- Treatment-emergent adverse event: Arthritis, patients n ([4]; n = 76): 0
- Treatment-emergent adverse event: Diarrhea, patients % ([4]; n = 76): 1 (1) %
- Treatment-emergent adverse event: Diarrhea, patients n ([4]; n = 76): 1 (1)
- Treatment-emergent adverse event: Dizziness, patients % ([4]; n = 76): 7%
- Treatment-emergent adverse event: Dizziness, patients n ([4]; n = 76): 5
- Treatment-emergent adverse event: Gastroenteritis, patients % ([4]; n = 76): 5%
- Treatment-emergent adverse event: Gastroenteritis, patients n ([4]; n = 76): 4
- Treatment-emergent adverse event: Headache, patients % ([4]; n = 76): 11%
- Treatment-emergent adverse event: Headache, patients n ([4]; n = 76): 8
- Treatment-emergent adverse event: Nasopharyngitis, patients % ([4]; n = 76): 7%
- Treatment-emergent adverse event: Nasopharyngitis, patients n ([4]; n = 76): 5
- Treatment-emergent adverse event: Peripheral edema, patients % ([4]; n = 76): 17%
- Treatment-emergent adverse event: Peripheral edema, patients n ([4]; n = 76): 13
- Treatment-emergent adverse event: Sinusitis, patients % ([4]; n = 76): 8%
- Treatment-emergent adverse event: Sinusitis, patients n ([4]; n = 76): 6
- Treatment-emergent adverse event: Upper respiratory tract infection, patients % ([4]; n = 76): 5%
- Treatment-emergent adverse event: Upper respiratory tract infection, patients n ([4]; n = 76): 4
- liver function test results ([4]; vs placebo): comparable between treatment groups
- heart rate, change from baseline ([4]; week 10, placebo 2.3±1.3): 0.4±0.9 beats per minute
- placebo-adjusted reduction in mean 24-hour diastolic ABP ([5]; 300 mg, week 10): 7.2±1.6 mmHg
- placebo-adjusted 24-hour ambulatory DBP, change from baseline ([5]; ABPM at week 10): −7.2 mmHg and −7.2±1.6 mmHg
- placebo-adjusted 24-hour ambulatory SBP, change from baseline ([5]; ABPM at week 10): −9.2 mmHg and −9.2±2.2 mmHg
- blood pressure reduction over the 24-hour monitoring period ([5]; ABPM week 10, once daily dosing): maintained throughout the 24-hour monitoring period; also recorded: maintained over 24 hours; also recorded: remained consistently lower throughout the dosing interval
- improvement in placebo-adjusted diurnal SBP ([5]; after 10 weeks, post-hoc analysis): 8.7 mmHg
- placebo-adjusted change from baseline in mean ABPM-determined nocturnal DBP ([5]; week 10): −5.9 mm Hg
- placebo-adjusted change from baseline in mean ABPM-determined nocturnal SBP ([5]; week 10): −9.9 mm Hg
- decrease in day-time SBP ([5]; week 10, placebo 2.2±2.4): 10.9±1.4 mmHg
- improvement in peak DBP as recorded by ABPM ([5]; week 10, placebo 2.3): 9.2 mmHg
- decrease in night-time SBP ([5]; week 10, placebo 3.8±2.7): 11.9±1.6 mmHg
- improvement in peak SBP as recorded by ABPM ([5]; week 10, placebo 6.0): 14.1 mmHg
- Day/night SBP ratio ([5]; week 10, placebo 6.8%): 9.5%
